Test results reported in article PMC8389037, “Design, Synthesis and Antifungal Activity of Stapled Aurein1.2 Peptides” (Antibiotics, 2021).
≈ marks a conversion by molar mass, not a printed value. Where a SMILES comes first, the peptide text is derived from it. Bridges are numbered along the chain shown (N, C = ends). [ ]: non-standard residue; d: D form. S5 = C=CCCC[C@](C)(N)C(=O)O

Legend:
[1] = tested on: C. albicans 901; experiment: microbe, parasite or virus in culture; conditions: for Minimum inhibitory concentration (MIC): 901, 48 h
Method: (§1) The in vitro antifungal activities of the target peptides were evaluated according to protocols from the CLSI. The broth microdilution method was used to determine the minimum inhibitory concentration (MIC) of the target peptides in 96-well plates. Fluconazole was used as a reference drug.
(§2) Clinical isolates of C. albicans SC5314, 901, 904, C. tropicalis ATCC20026 and clinical isolate 895, C. glabrata ATCC1182 and clinical isolate 896, C. krusei ATCC2340, and C. parapsilosis ATCC22010 are from the collection library in the Drug Discovery and Development Center, Naval Medical University, Shanghai, China. C. auris clinical isolates are provided by Linqi Wang (Institute of Microbiology, Chinese Academy of Sciences) and Changbin Chen (Institut Pasteur of Shanghai, Chinese Academy of Sciences). All strains were cultured in YPD (1% yeast extract, 2% peptone, and 2% glucose) liquid medium overnight at 30 °C with shaking at 220 rpm.
(§3) The MICs of chemicals against all strains were determined by the micro broth dilution method according to the Clinical and Laboratory Standards Institute (Wayne PA, Reference Method for Broth Dilution Antifungal Susceptibility Testing of yeasts, approved Standard M27-A3, 3 rd ed; Clinical and Laboratory Standards Institute (CLSI): USA, 2008). The initial concentration of fungal suspension in RPMI 1640 medium was 3–5 × 10^3 colonies forming unit (CFU)/mL, which was added to 96-well plates. Peptides were prepared in dimethyl sulfoxide (DMSO) with an initial stored concentration of 6.4 mg/mL. Serial dilutions were made based on the CLSI M27 guide to obtaining the final concentrations ranging from 0.125 to 64 μg/mL for fluconazole and 0.25 to 128 μg/mL for peptides […]. The plates were incubated at 30 °C for 48 h. Optical density was measured at 630 nm, and background optical densities were subtracted from that of each well. The definition of MIC is the lowest concentration at which 80% of tested strains cannot grow.

[2] = tested on: C. albicans 904; experiment: microbe, parasite or virus in culture; conditions: for Minimum inhibitory concentration (MIC): 904, 48 h
Method: as §1, §2, §3

[3] = tested on: C. albicans SC5314; experiment: microbe, parasite or virus in culture; conditions: SC5314, 48 h
Method: as §1, §2, §3

[4] = tested on: C. auris 918; experiment: microbe, parasite or virus in culture; conditions: for Minimum inhibitory concentration (MIC): 918, 48 h
Method: as §1, §2, §3

[5] = tested on: C. auris 919; experiment: microbe, parasite or virus in culture; conditions: for Minimum inhibitory concentration (MIC): 919, 48 h
Method: as §1, §2, §3

[6] = tested on: C. glabrata 896; experiment: microbe, parasite or virus in culture; conditions: for Minimum inhibitory concentration (MIC): 896, 48 h
Method: as §1, §2, §3

[7] = tested on: C. glabrata ATCC 1182; experiment: microbe, parasite or virus in culture; conditions: for Minimum inhibitory concentration (MIC): ATCC 1182, 48 h
Method: as §1, §2, §3

[8] = tested on: C. krusei ATCC 2340; experiment: microbe, parasite or virus in culture; conditions: for Minimum inhibitory concentration (MIC): ATCC 2340, 48 h
Method: as §1, §2, §3

[9] = tested on: C. parapsilosis ATCC 22010; experiment: microbe, parasite or virus in culture; conditions: for Minimum inhibitory concentration (MIC): ATCC 22010, 48 h
Method: as §1, §2, §3

[10] = tested on: C. tropicalis 895; experiment: microbe, parasite or virus in culture; conditions: for Minimum inhibitory concentration (MIC): 895, 48 h
Method: as §1, §2, §3

[11] = tested on: C. tropicalis ATCC 20026; experiment: microbe, parasite or virus in culture; conditions: for Minimum inhibitory concentration (MIC): ATCC 20026, 48 h
Method: as §1, §2, §3

[12] = tested on: chymotrypsin; experiment: Chymotrypsin digestion assay (proteolytic stability); conditions: chymotrypsin 10 ng/µL in PBS 50 mM, 2 mM CaCl2, pH 7.4, room temperature; 130 µL of 1 mM DMSO peptide stock + 910 µL enzyme; sampled 0, 0.5, 1.5, 2, 4.5 h; HPLC at 214 nm
Method: Their susceptibility toward chymotrypsin degradation was tested in pH 7.4 PBS buffer at room temperature, containing 2 mM of CaCl2, and the percentages of remaining peptides were determined by HPLC. […] The corresponding HPLC charts for the determination of peptide residues are in the Supplementary Material.
Figure 4 Proteolytic stability of Aurein1.2, Sau-1, Sau-2, Sau-5, and Sau-9. They were dissolved in chymotrypsin solution (10 ng/μL, 50 mM, containing 2 mM of CaCl2, pH = 7.4). The percentages of the remaining peptides were monitored by HPLC.
Aurein1.2, Sau-1, Sau-2, Sau-5, and Sau-9, were dissolved in dimethyl sulfoxide to prepare a reserve solution with a concentration of 1 mM. Chymotrypsin was dissolved in PBS buffer (50 mM, containing 2 mM of CaCl2, pH = 7.4) to obtain a final concentration of 10 ng/µL. Then the 130 µL peptide solutions were incubated with 910 µL of chymotrypsin solution at room temperature. Then 130 µL of digestion mixture was taken at 0, 0.5, 1.5, 2 or 4.5 h, and then quenched with 50 µL of hydrochloric acid (1 mM). High-performance liquid chromatography (HPLC) was used to detect the residues of linear peptides and stapled Aurein1.2 peptides at 214 nm at a different time.

[13] = Candidozyma auris, 48 h, read-out: Minimum inhibitory concentration (MIC)

| SMILES | Minimum inhibitory concentration (MIC) [1] [µg/mL] | Minimum inhibitory concentration (MIC) [2] [µg/mL] | Minimum inhibitory concentration (MIC) [3] [µg/mL] | Minimum inhibitory concentration (MIC) [4] [µg/mL] | Minimum inhibitory concentration (MIC) [5] [µg/mL] | Minimum inhibitory concentration (MIC) [6] [µg/mL] | Minimum inhibitory concentration (MIC) [7] [µg/mL] | Minimum inhibitory concentration (MIC) [8] [µg/mL] | Minimum inhibitory concentration (MIC) [9] [µg/mL] | Minimum inhibitory concentration (MIC) [10] [µg/mL] | Minimum inhibitory concentration (MIC) [11] [µg/mL] | further results |
| --- | --- | --- | --- | --- | --- | --- | --- | --- | --- | --- | --- | --- |
| CC[C@H](C)[C@H](NC(=O)[C@H](CCCCN)NC(=O)[C@]1(C)CCCC=CCCC[C@](C)(NC(=O)[C@H](CC(C)C)NC(=O)CNC(C)=O)C(=O)N[C@@H](CC(=O)O)C(=O)N[C@@H]([C@@H](C)CC)C(=O)N[C@@H]([C@@H](C)CC)C(=O)N1)C(=O)N[C@@H](C)C(=O)N[C@@H](CCC(=O)O)C(=O)N[C@@H](CO)C(=O)N[C@@H](Cc1ccccc1)C(N)=O [Sau-3] (Ac-GL[S5]DII[S5]KIAESF-NH2; staple 3-7) | >128 | >128 | >64 | >128 | >128 | >128 | >128 | >128 | >128 | >128 | >128 |  |
| OC(Cn1cncn1)(Cn1cncn1)c1ccc(F)cc1F [Fluconazole, reference compound] |  |  |  |  |  |  |  |  |  |  |  | MIC ([1]; Candida albicans, 901, 48 h, read-out: Minimum inhibitory concentration (MIC)): > 64 µg/mL; MIC ([2]; Candida albicans, 904, 48 h, read-out: Minimum inhibitory concentration (MIC)): > 64 µg/mL; MIC ([3]; Candida albicans, read-out: Minimum inhibitory concentration (MIC)): 0.5 µg/mL (≈ 1.63 µM); MIC [4, 13]: > 128 µg/mL; MIC [5, 13]: > 128 µg/mL; MIC ([6]; Nakaseomyces glabratus, 48 h, read-out: Minimum inhibitory concentration (MIC)): > 128 µg/mL; MIC ([7]; Nakaseomyces glabratus, ATCC1182, 48 h, read-out: Minimum inhibitory concentration (MIC)): 2 µg/mL (≈ 6.53 µM); MIC ([8]; Pichia kudriavzevii, ATCC2340, 48 h, read-out: Minimum inhibitory concentration (MIC)): 64 µg/mL (≈ 209 µM); MIC ([9]; Lodderomyces parapsilosis, ATCC22010, 48 h, read-out: Minimum inhibitory concentration (MIC)): 1 µg/mL (≈ 3.27 µM); MIC ([10]; Candida tropicalis, 895, 48 h, read-out: Minimum inhibitory concentration (MIC)): > 128 µg/mL; MIC ([11]; Candida tropicalis, ATCC20026, 48 h, read-out: Minimum inhibitory concentration (MIC)): 1 µg/mL (≈ 3.27 µM) |
| CC[C@H](C)[C@H](NC(=O)[C@H](CCCCN)NC(=O)[C@H](CCCCN)NC(=O)[C@]1(C)CCCC=CCCC[C@](C)(NC(=O)CNC(C)=O)C(=O)N[C@@H](Cc2ccccc2)C(=O)N[C@@H](CC(=O)O)C(=O)N[C@@H]([C@@H](C)CC)C(=O)N1)C(=O)N[C@@H](C)C(=O)N[C@@H](CCC(=O)O)C(=O)N[C@@H](CO)C(=O)N[C@@H](Cc1ccccc1)C(N)=O [Sau-2] (Ac-G[S5]FDI[S5]KKIAESF-NH2; staple 2-6) | >128 | >128 | >64 | >128 | >128 | 128 (≈ 82.8 µM) | >128 | >128 | >128 | 16 (≈ 10.4 µM) | >128 |  |
| CC[C@H](C)[C@H](NC(=O)[C@H](CC(=O)O)NC(=O)[C@H](Cc1ccccc1)NC(=O)[C@H](CC(C)C)NC(=O)CNC(C)=O)C(=O)N[C@@]1(C)CCCC=CCCC[C@@](C)(C(=O)N[C@@H](CCC(=O)O)C(=O)N[C@@H](CO)C(=O)N[C@@H](Cc2ccccc2)C(N)=O)NC(=O)[C@H]([C@@H](C)CC)NC(=O)[C@H](CCCCN)NC(=O)[C@H](CCCCN)NC1=O [Sau-6] (Ac-GLFDI[S5]KKI[S5]ESF-NH2; staple 6-10) | >128 | >128 | >64 | >128 | >128 | >128 | >128 | >128 | >128 | >128 | >128 |  |
| CC[C@H](C)[C@H](NC(=O)[C@H](CC(=O)O)NC(=O)[C@H](Cc1ccccc1)NC(=O)[C@H](CC(C)C)NC(=O)CNC(C)=O)C(=O)N[C@H](C(=O)N[C@@H](CCCCN)C(=O)N[C@@]1(C)CCCC=CCCC[C@@](C)(C(=O)N[C@@H](Cc2ccccc2)C(N)=O)NC(=O)[C@H](CCC(=O)O)NC(=O)[C@H](C)NC(=O)[C@H]([C@@H](C)CC)NC1=O)[C@@H](C)CC [Sau-8] (Ac-GLFDIIK[S5]IAE[S5]F-NH2; staple 8-12) | >128 | >128 | >64 | >128 | >128 | >128 | >128 | >128 | >128 | >128 | >128 |  |
| CC[C@H](C)[C@@H]1NC(=O)[C@@](C)(NC(=O)[C@H](CC(=O)O)NC(=O)[C@H](Cc2ccccc2)NC(=O)[C@H](CC(C)C)NC(=O)CNC(C)=O)CCCC=CCCC[C@@](C)(C(=O)N[C@@H](C)C(=O)N[C@@H](CCC(=O)O)C(=O)N[C@@H](CO)C(=O)N[C@@H](Cc2ccccc2)C(N)=O)NC(=O)[C@H](CCCCN)NC(=O)[C@H](CCCCN)NC1=O [Sau-5] (Ac-GLFD[S5]IKK[S5]AESF-NH2; staple 5-9) | >128 | >128 | 16 (≈ 10.4 µM) | >128 | >128 | >128 | >128 | >128 | >128 | 16 (≈ 10.4 µM) | >128 | proteolytic stability, remaining peptide [12]: remain relatively stable over time |
